These results are taken from PubChem BioAssay (NCI).

Values joined by “and” are separate entries in the source; they are usually repeats but may differ in a detail not shown here. Equal entries are not always repeated.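 Five concentrations, 48 hours, 96-well plates. Here, GI50 denotes the concentration required for 50% inhibition of growth. At the TGI there is no net growth.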

What all share (experiment): growth of human tumour cells (NCI), 48 h
For test [1], the system named is LOX IMVI melanoma.
Test [2] has as its system TK-10 renal.
The subject of test [3] is SF-295 CNS.
In test [4] the test system is A498 renal.
The subject of test [5] is NCI-H522 lung.
In test [6] the test system is HL-60(TB) leukemia.
The subject of test [7] is COLO 205 colon.
Test [8] has as its system SNB-75 CNS.
The subject of test [9] is HS 578T breast.
Test [10] concerns MOLT-4 leukemia.

Consider `CCN1C(=O)N(CC)C2C1NN=c1s/c(=C3\C(=O)N(CC(C)(C)C)c4ccccc43)c(=O)n12` (stereo unspecified), for which the GI50 in test [1] was 3.38 µM; in test [2], 15.3 µM; in [3], 2.84 µM; in test [4], 1120 nM; in test [5], 3.19 µM; in test [6], 3.78 µM. For the same compound, the GI50 in test [7] is 3.31 µM; in [8], 2.77 µM; in test [9] it was 2660 nM; in [10] it was 3.79 µM. The TGI was 15.4 µM in test [1]; 48.5 µM in [2]; 12.6 µM in [3]; 4.85 µM in test [4]; 18.5 µM in test [5]; 22.6 µM in test [6]. Moreover, the TGI in [7] amounted to 13.5 µM; in test [8] it was 24.2 µM; in [9], 19.7 µM; in [10], 40.3 µM.
With `CCOC(=O)/C=C(/C)Sc1cc(O)c2ccccc2c1O`, the GI50 in [1] was 2.14 µM; in test [2], 8.29 µM; in test [3], 12.4 µM; in test [4], 22800 nM; in test [5] it was 1.73 µM; in test [6], 2.29 µM. Also, the GI50 in test [7] is 7.22 µM; in test [8], 2.55 µM; in test [9] it was 2260 nM; in [10], 2.33 µM. Further, the TGI is more than 23.1 µM in test [1]; 17.9 µM in [2]; 26.4 µM in [3]; 56.3 µM in [4]; 4.66 µM in test [5]; 5.72 µM in [6]. The TGI stood at 20.7 µM in test [7], 6.94 µM in test [8], 6.58 µM in test [9] and 7.08 µM in test [10].
`CCN(Cc1ccccc1C)c1ccc(CO)c(Cl)c1`: the GI50 is 17.6 µM in test [1]; 0.0944 µM in [2]; 4.15 µM in test [3]; 28.3 nM in [4]; 13.4 µM in [5]; 11.3 µM in [6]. Besides, the GI50 is 13.3 µM in [7], 9.62 µM in test [8], 16000 nM in [9] and 15.8 µM in test [10]. In addition, the TGI in test [1] amounted to 33 µM; in [2], 0.863 µM; in test [3], 16.9 µM; in test [4], 0.114 µM; in test [5], 28.8 µM; in test [6], 34.4 µM. For the same compound, the TGI was 28.2 µM in [7], 25 µM in test [8], 42.3 µM in test [9] and 39.2 µM in test [10].
Turning to `O=C(O)CC(NC(=O)CP(=O)(O)O)C(=O)O` (stereo unspecified), the TGI in [1] is 824 µM; in [2], more than 10000 µM; in [3], more than 10000 µM; in test [4], more than 9870 µM; in test [5], 9910 µM; in test [6], more than 10000 µM. Besides, the TGI in test [7] was more than 10000 µM; in test [8], more than 10000 µM; in [9] it was more than 10000 µM; in test [10] it was 6910 µM. Also, the GI50 is 78.3 µM in [5] and 74500 nM in [9].
For `CC(=O)Oc1ccccc1C(=O)Nc1ncc([N+](=O)[O-])s1`, the GI50 was 2.74 µM in test [1]; 3.75 µM in test [2]; 1.91 µM in [3]; 245 nM in [4]; 1.63 µM in test [5]; 1.77 µM in test [6]. Besides, the GI50 in test [7] was 1.83 µM; in [8], 1.6 µM; in test [9], 1940 nM; in [10], 2.64 µM. Moreover, the TGI in test [1] was 14.5 µM and > 100 µM; in test [2], 10.3 µM and > 100 µM; in test [5], 6.2 µM and 21.7 µM; in test [6] it was 4.24 µM; in test [8], 7.13 µM and > 67.9 µM; in [9] it was 9.97 µM and > 37.5 µM.
With `CC(C)(S)C(N)C(=O)O` (stereo unspecified), the GI50 is 1590 µM in test [1]; 2610 µM in test [2]; 963 µM in test [3]; 4600 µM in [5]; 3640 µM in test [6]; 1180 µM in [7]. Besides, the GI50 in test [8] was more than 5000 µM; in test [10] it was 3040 µM. In addition, the TGI was more than 5000 µM in test [1]; more than 5000 µM in test [2]; 3660 µM and > 100 µM in test [3]; more than 100 µM in test [4]; more than 5000 µM in [5]; more than 5000 µM in test [6]. The TGI in [7] was 2880 µM and > 100 µM; in test [8], more than 5000 µM; in [9], more than 100 µM; in test [10], more than 5000 µM.
